Reference: patent US10245332B2, “Contrast agents for applications including perfusion imaging” (Lantheus Medical Imaging, Inc., priority 2008, dated 2019)

Experiments:
[1] = microPET imaging of NHP brain after intravenous injection; type: in vivo, nonhuman primates (NHP)
Procedure: Similarly, in nonhuman primates (NHP), about 3 mCi of Agent 1 or Agent 2 was injected intravenously and the brain of NHP was imaged in a microPET. […] The NHP brain was not visible when imaged with Agent 1.

[2] = microPET brain imaging in normal NHP (Example 13); type: in vivo, nonhuman primates (NHP); conditions: 30 minutes post injection of 5.1 mCi
Procedure: (§1) Imaging was performed with a microPET camera (Focus220, MICROPET) in anesthetized rats, rabbits and nonhuman primates (NHP) following the intravenous administration of 1, 2 and 3 mCi of ^18F labeled 2-tert-butyl-4-chloro-5-[4-(2-fluoro-ethoxymethyl)-benzyloy]-2H-pyridazin-3-one, also referred to herein as Agent 2. After count acquisition, images were constructed and manually re-orientated as a series of tomographic views. […] These images were acquired 30 minutes post injection (mpi) of 5.1 mCi of 2-tert-butyl-4-chloro-5-[4-(2-[^18F]fluoro-ethoxymethyl)-benzyloy]-2H-pyridazin-3-one and were decay corrected.

[3] = microPET imaging of rat brain after intravenous injection; type: in vivo; conditions: about 1 mCi intravenously
Procedure: After anesthesia, about 1 mCi of Agent 2 or Agent 3 was injected into a rat intravenously and the rat brain was imaged in a microPET scanner. Following the image acquisition, the images were reconstructed into tomographic views.

[4] = Intravenous injection during microPET imaging in normal animals: heart rate, ECG, adverse effects; type: in vivo, rats, rabbits and nonhuman primates; conditions: anesthetized animals
Procedure: as §1

tumor = assay: Tumor uptake measured in mouse tumor models after imaging; type: in vivo; conditions: about 500 μCi intravenously
Procedure: Imaging studies using several mouse tumor models, including c-neu ONCO mice, nu/nu mice with OVCAR tumor, and nu/nu mice with HT1080 tumor, were conducted using contrast agents described herein. After administering anesthesia to the mouse, about 500 μCi of Agent 2 (from Table 1) were injected intravenously and the tumor was imaged in a microPET scanner. After imaging acquisition, images were reconstructed into tomographic views. […] In addition, tumor uptake of Agent 2 was measured in the mouse models after imaging. The uptake was detectable in a range from 1-4% injected dose per gram tissue.

Row | penetration into the brain, relative to Agent 2 ([1]; SAR study of Example 14) | Structure (SMILES) | visibility of NHP brain in microPET images ([1]; NHP, about 3 mCi intravenously) | transport into the brain (uptake and resolution of the images) [2] | passing the blood brain barrier and accumulating in the brain [3] | changes in heart rate and ECG waveforms [4] | survival and adverse effects during image acquisition period [4] | passing through blood brain barrier and accumulating in the brain ([1]; NHP, about 3 mCi intravenously) | tumor uptake (tumor)
1 | decreased penetration into the brain | CC(C)(C)n1ncc(OCc2ccc(CCCC[18F])cc2)c(Cl)c1=O [Agent 1, 2-tert-butyl-4-chloro-5-[4-(4-[^18F]fluoro-butyl)-benzyloxy]-2H-pyridazin-3-one] | not visible | – | – | – | – | – | –
2 | – | CC(C)(C)n1ncc(OCc2ccc(COCC[18F])cc2)c(Cl)c1=O [Agent 2, 2-tert-Butyl-4-chloro-5-[4-(2-(^18F)fluoroethoxymethyl)-benzyloxy]-2H-pyridazin-3-one] | visible | efficiently transported into the brain | capable of passing the blood brain barrier and accumulating in the brain | did not induce changes in heart rate and ECG waveforms | all animals survived the image acquisition period with no adverse effects | capable of passing through blood brain barrier and accumulating in the brain | 1-4 % injected dose per gram tissue
3 | – | CC(C)(C)n1ncc(OCc2ccc(OCCC[18F])cc2)c(Cl)c1=O [Agent 3, 2-tert-Butyl-4-chloro-5-[4-(3-(^18F)fluoropropoxy)-benzyloxy]-2H-pyridazin-3-one] | – | – | unlike Agent 3, Agent 2 is capable of passing the blood brain barrier | – | – | – | –
